Assay results published in patent US20040071768A1, “Compositions and methods for treating cancer” (Inex Pharmaceuticals Corporation, priority 1999, published 2004).
Where two headings read alike, the source gives them in different places.

What was measured:
PC3 prostate xenografts = experiment: Single dose anti-tumor activity, PC3 prostate xenograft; type: in vivo; conditions: PC-3
Description: (§1) Male NCr nude mice were injected intravenously via the lateral tail vein on day 9 post-tumor-implantation with saline (♦), NVB at 45.0 mg/kg (◯) and 34.0 mg/kg (□), or NVB-TCS at 15.0 mg/kg (●) and 11.0 mg/kg (▪) at a drug-to-lipid ratio of 0.3:1 (w/w). The arrow on the x-axis denotes the day of drug administration. Data points represent mean±SEM (n=10).
Vinorelbine is used clinically in the treatment of advanced NSCLC and metastatic breast cancer.
(§2) Tumor models investigated included RXF393 (renal), MX-1 (breast), LX-1 (small cell lung cancer), PC-3 (prostate), and HT29 (colon). These models were known to be sensitive to vinorelbine. Tumor fragments were implanted subcutaneously in the flank of NCr nu/nu mice. […] Animal weights and tumor size were determined twice weekly.

[1] = Vinorelbine tolerability, multiple dosing (q7d x 3), nude mice; type: in vivo, NCr nu/nu mice; conditions: Nudes
[2] = Maximum tolerable dose (MTD) of free and liposomal vinorelbine; type: in vivo, nude and ICR mice
[3] = for DRD: ICR
Description: Single and multiple (q7dx3) dose MTD studies were performed in tumor-bearing and non-tumor bearing NCr nu/nu mice, as well as healthy, outbred ICR mice.
A comparative (VRL vs. liposomal VRL) toxicity study was performed in healthy, outbred ICR mice.
Parameters evaluated throughout the study included animal weight loss, physical appearance and behavioral changes, blood analysis (CBC and serum chemistry panel), hematopoietic progenitor cell levels in femur bone marrow, and organ weights and gross pathology. Tissues were collected and stored for histology as required.

MX-1 breast xenografts = experiment: Single dose anti-tumor activity, MX-1 breast xenograft; type: in vivo
Description: as §1, with “Female” for “Male”, “8” for “9”, “34.0” for “45.0”, “25.5” for “34.0”, “(n=10). […]” for “(n=10).”
as §2

DLD-1 colon xenografts = test system: DLD-1 colon xenografts
Description: Female NCr nude mice were injected intravenously (q7dx3) via the lateral tail vein on days indicated by an asterisk (*). […] Irinotecan (⋄) was prepared in saline and injected iv (q4dx3) at a dose of 90 mg/kg/dose. Drug-to-lipid ratio was 0.3/1 (w/w). Data points represent median tumor volume (n=6).
The anti-tumor activity of multiple (q7d3) dose schedules of liposomal vinorelbine was evaluated in several human xenograft tumor models. The goal of this series of studies was to identify the benefits of encapsulation by evaluating a series of doses and determining the therapeutic index in several xenograft models. Models were selected based on the following criteria: (1) activity in the single dose studies, (2) a comprehensive literature review of vinca alkaloid efficacy, (3) a desire to include at least 2-3 models that represent the clinical use of vinorelbine, and (4) a desire to include models with a range of sensitivity to vinorelbine so that improvements resulting from the use of the liposome formulation might be identified. Based on these criteria, MX-1 and MDA-MB-435 breast models, the NCl-H460 NSCLC model and the HT-29 and DLD-1 colon models were chosen.
Therapeutic index (TI) is a parameter that quantifies the “safety factor” of a particular therapy. TI is a ratio of a toxicity parameter and a biological activity parameter. Therefore, a higher ratio represents a greater potential margin of safety. For these studies, TI is defined as follows: […]
The minimal effective dose (MED) was set according to NCl activity criteria as the dose resulting in an optimal % T/C of 40. This information was derived from Table 7.

[4] = cited from earlier work
[5] = clinical hematological toxicity

SMILES: CCC1=C[C@@H]2CN(C1)Cc1c([nH]c3ccccc13)[C@@](C(=O)OC)(c1cc3c(cc1OC)N(C)[C@H]1[C@@](O)(C(=O)OC)[C@H](OC(C)=O)[C@]4(CC)C=CCN5CC[C@]31[C@@H]54)C2 [VRL, 5′-noranhydrovinblastine]
- % T/C (optimal % T/C following final treatment) (PC3 prostate xenografts; single i.v. dose 34 mg/kg): −3%
- DRD (drug related deaths) (PC3 prostate xenografts; single i.v. dose 34 mg/kg): 2/10
- MWL (maximum mean weight loss per treatment group) (PC3 prostate xenografts; single i.v. dose 34 mg/kg): −18.7
- NCI Score (PC3 prostate xenografts; single i.v. dose 34 mg/kg): 2
- T-C (tumor growth delay to 1000 mm^3) (PC3 prostate xenografts; single i.v. dose 34 mg/kg): 34
- TF (tumor free animals at the end of study) (PC3 prostate xenografts; single i.v. dose 34 mg/kg): 1/8
- % T/C (optimal % T/C following final treatment) (PC3 prostate xenografts; single i.v. dose 45 mg/kg): Toxic
- DRD (drug related deaths) (PC3 prostate xenografts; single i.v. dose 45 mg/kg): 5/10
- MWL (maximum mean weight loss per treatment group) (PC3 prostate xenografts; single i.v. dose 45 mg/kg): −25.4
- TF (tumor free animals at the end of study) (PC3 prostate xenografts; single i.v. dose 45 mg/kg): 4/5
- DRD ([1]; 5 mg/kg q7d x 3): 0/30
- DRD ([1]; 10 mg/kg q7d x 3): 0/37
- DRD ([1]; 20 mg/kg q7d x 3): 2/37
- DRD ([1]; 25 mg/kg q7d x 3): 0/7
- DRD ([1]; 30 mg/kg q7d x 3): 6/18
- MTD ([2]; NCr nu/nu and ICR, mouse, in vivo, intravenous, q7dx3 dose schedule, estimated, read-out: maximum tolerated dose (MTD)): 25 to 30 mg/kg
- MTD ([2]; NCr nu/nu and ICR, mouse, in vivo, single dose, estimated, read-out: maximum tolerated dose (MTD)): 30 mg/kg
- MTD ([2]; given intravenously on a q7dx3 schedule): 27.5 mg/kg/dose
- MTD used in the calculation of therapeutic index (TI) ([2]; q7dx3, derived from Table 5): 27.5 mg/kg
- DRD ([3]; 5 mg/kg q7d x 3): 0/15
- DRD ([3]; 10 mg/kg q7d x 3): 0/15
- DRD ([3]; 20 mg/kg q7d x 3): 0/15
- DRD ([3]; 25 mg/kg q7d x 3): 1/15
- Granulocytopenia ([3]; mouse, in vivo): significant
- neutrophil population ([3]; mouse, in vivo): almost completely abolished
- spleen weights ([3]; mouse, in vivo): Decreased spleen weights
- Max % Wt Loss ([3]; mouse, in vivo, 5 mg/kg): +
- Max % Wt Loss ([3]; mouse, in vivo, 10 mg/kg): −3%
- Max % Wt Loss ([3]; mouse, in vivo, 20 mg/kg): −3%
- Max % Wt Loss ([3]; mouse, in vivo, 25 mg/kg): −5%
- % T/C (optimal % T/C following final treatment) (MX-1 breast xenografts; single i.v. dose 25.5 mg/kg): 13%
- DRD (drug related deaths) (MX-1 breast xenografts; single i.v. dose 25.5 mg/kg): 1/10
- MWL (maximum mean weight loss per treatment group) (MX-1 breast xenografts; single i.v. dose 25.5 mg/kg): −14.8
- NCI Score (MX-1 breast xenografts; single i.v. dose 25.5 mg/kg): 1
- T-C (tumor growth delay to 1000 mm^3) (MX-1 breast xenografts; single i.v. dose 25.5 mg/kg): 13
- TF (tumor free animals at the end of study) (MX-1 breast xenografts; single i.v. dose 25.5 mg/kg): 1/9
- % T/C (optimal % T/C following final treatment) (MX-1 breast xenografts; single i.v. dose 34 mg/kg): 11%
- DRD (drug related deaths) (MX-1 breast xenografts; single i.v. dose 34 mg/kg): 0/10
- MWL (maximum mean weight loss per treatment group) (MX-1 breast xenografts; single i.v. dose 34 mg/kg): −17.4
- NCI Score (MX-1 breast xenografts; single i.v. dose 34 mg/kg): 1
- T-C (tumor growth delay to 1000 mm^3) (MX-1 breast xenografts; single i.v. dose 34 mg/kg): 16
- TF (tumor free animals at the end of study) (MX-1 breast xenografts; single i.v. dose 34 mg/kg): 3/10
- % T/C (optimal % T/C following final treatment) (DLD-1 colon xenografts; 5 mg/kg i.v. q7dx3): 88%
- DRD (drug related deaths, n = 6) (DLD-1 colon xenografts; 5 mg/kg i.v. q7dx3): 0
- NCI Score (DLD-1 colon xenografts; 5 mg/kg i.v. q7dx3): 0
- T-C (tumor growth delay to 1000 mm^3) (DLD-1 colon xenografts; 5 mg/kg i.v. q7dx3): 0.0
- TF (tumor free animals at the end of study) (DLD-1 colon xenografts; 5 mg/kg i.v. q7dx3, n=6): 0
- % T/C (optimal % T/C following final treatment) (DLD-1 colon xenografts; 10 mg/kg i.v. q7dx3): 58%
- DRD (drug related deaths, n = 6) (DLD-1 colon xenografts; 10 mg/kg i.v. q7dx3): 0
- NCI Score (DLD-1 colon xenografts; 10 mg/kg i.v. q7dx3): 0
- T-C (tumor growth delay to 1000 mm^3) (DLD-1 colon xenografts; 10 mg/kg i.v. q7dx3): 4.7
- TF (tumor free animals at the end of study) (DLD-1 colon xenografts; 10 mg/kg i.v. q7dx3, n=6): 0
- % T/C (optimal % T/C following final treatment) (DLD-1 colon xenografts; 20 mg/kg i.v. q7dx3): −36%
- DRD (drug related deaths, n = 6) (DLD-1 colon xenografts; 20 mg/kg i.v. q7dx3): 0
- NCI Score (DLD-1 colon xenografts; 20 mg/kg i.v. q7dx3): 2
- T-C (tumor growth delay to 1000 mm^3) (DLD-1 colon xenografts; 20 mg/kg i.v. q7dx3): 19.7
- TF (tumor free animals at the end of study) (DLD-1 colon xenografts; 20 mg/kg i.v. q7dx3, n=6): 0
- % T/C (optimal % T/C following final treatment) (DLD-1 colon xenografts; 30 mg/kg i.v. q7dx3): −100%
- DRD (drug related deaths, n = 6) (DLD-1 colon xenografts; 30 mg/kg i.v. q7dx3): 2
- NCI Score (DLD-1 colon xenografts; 30 mg/kg i.v. q7dx3): 3
- T-C (tumor growth delay to 1000 mm^3) (DLD-1 colon xenografts; 30 mg/kg i.v. q7dx3): 26.4
- TF (tumor free animals at the end of study) (DLD-1 colon xenografts; 30 mg/kg i.v. q7dx3, n=6): 0
- anemia [4, 5]: 83%
- leukopenia [4, 5]: 92%
- thrombocytopenia [4, 5]: 5%
- Peripheral neuropathy ([4]; clinical): 25%
- phlebitis ([4]; clinical): 7%
